Here are results for 2 compounds from patent US12599676B2, “Cytotoxic imidazo[1,2-A]pyridine compounds and their use in therapy” (MyricX Pharma Limited, priority 2022, dated 2026).

For one data set, the system named is Caco-2 cells. Briefly: Caco-2 cell permeability assay. Type of data set: in vitro ADME. The following applies: apical to basal Papp, 2 μM, pH 7.4, 2.5 h. A digest of the protocol: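 Caco-2 monolayers grown 10 days were dosed at 2 μM (1% DMSO) on the donor side in HBSS/10 mM HEPES pH 7.4, for both AB and BA directions, then incubated 2.5 h at 37 °C without shaking. Donor and acceptor samples were quantified by LC-MS/MS to give Papp. Wells that failed a Lucifer Yellow integrity check (>1% passage) were excluded.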
In general terms: Caco-2 cells form a polarised layer with tight junctions and transporters.

The test system of data set [1] is LYXFDLBC4009 (patient-derived xenograft lymphoma). Briefly: Cell cytotoxicity CellTiter-Glo, LYXFDLBC4009. Type of data set: cell-based. Here is the method:
(§1) Cells were seeded in 96-well microplates and treated with compounds or cisplatin (as a positive control) at 9 increasing concentrations in technical triplicate. […] On day 1, 90 μL of various cell suspensions with the number of cells ranging from 5000-8000 cells/well were seeded into wells of a 96-well plate (Corning). The number of cells to be seeded was previously determined. • 2. All 96-wells plates with cells were placed in an incubator overnight at 37° C. with 5% CO2. • 3. On day 2, cells were observed under a microscope ensuring the cells treated with vehicle control were in good condition. • 4. A dilution series of the test compounds and cisplatin were prepared at 10× the final concentrations required. 10 μL/well of 10× compound solution was added to the corresponding plates. The final volume was 100 μL/well for all the plates. Final DMSO concentration was 0.1%. • 5. On day 5 (after 72 hours of incubation), 50 μL of CTG reagent was added to each well. • 6. Contents were mixed for 5 minutes on an orbital shaker to facilitate cell lysis. • 7. The plate was allowed to incubate at room temperature for 10 minutes to stabilize luminescent signals.
(§2) The effects of Comparator Compound 1 and certain Example compounds on the viability of various cell lines (LYXFDLBC2835, LYXFDLBC4009 and LYXFDLBC411 (patient-derived xenograft lymphoma), HT1080 (human fibrosarcoma), CA46 (human B cell lymphoma), RKO (human colon carcinoma), NCI-H1703 (human lung squamous cell carcinoma), MX-1 (human breast carcinoma), DU4475 (human breast carcinoma), LU2511 (human lung large cell undifferentiated carcinoma), LU0884 (human lung squamous cell carcinoma)), Panc-1 (human pancreatic carcinoma), MCF-7 (human breast cancer), SW480 (human colon adenocarcinoma) and HCC1806 (human breast ductal carcinoma) were performed using the standard CellTiter-Glo assay (CTG, Promega) as described in Biological Example 2. Compounds which show efficacy in these assays are expected to be useful as agents for treating or preventing hyperproliferative disorders such as cancer.

The test system of data set [2] is LYXFDLBC2835 (patient-derived xenograft lymphoma). Briefly: Cell cytotoxicity CellTiter-Glo, LYXFDLBC2835. Type of data set: cell-based. Here is the method: as §1, §2
(In general: ATP-based viability assays read luminescence as a measure of living cells.)

Data set [3] deals with LU0884 (human lung squamous cell carcinoma). Briefly: Cell cytotoxicity CellTiter-Glo, LU0884. Type of data set: cell-based. As to the method: as §1, with “signals. […]” for “signals.”
For data set [4], the system named is SU-DHL-10 cell line (human B cell lymphoma). Briefly: Cell cytotoxicity in SU-DHL-10 cell line (CellTiter-Glo). It counts as cell-based. To be noted: Homo sapiens, SU-DHL10, 72 h, 72 h treatment, CTG. A digest of the protocol: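 Cells seeded at 5000-8000/well, dosed next day with 9 concentrations in triplicate (DMSO 0.1% final) and incubated 72 h at 37° C, 5% CO2. Viability by CellTiter-Glo luminescence normalised to vehicle (100%) and medium blank; IC50 from sigmoidal nonlinear regression.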

Data set [5] relates to LU2511 (human lung large cell undifferentiated carcinoma). Kind of data set: Cell cytotoxicity CellTiter-Glo, LU2511. Type of data set: cell-based. As to the method: as §1, with “signals. […]” for “signals.”
Data set [6] relates to LYXFDLBC4113 (patient-derived xenograft lymphoma). Kind of data set: Cell cytotoxicity CellTiter-Glo, LYXFDLBC4113. Type of data set: cell-based. As to the method: as §1, §2
For data set [7], the system named is DU4475 (human breast carcinoma). Kind of data set: Cell cytotoxicity CellTiter-Glo, DU4475. It counts as cell-based. To be noted: DU-4475. As to the method:
as §1, with “signals. […]” for “signals.”

As for `CNCc1cnc2ccc(-c3ccc(F)c(F)c3OCCc3c(C(O)C(C)(C)C)nn(C)c3C)cn12` (single isomer, unassigned) [Example 12, 1-(4-(2-(2,3-difluoro-6-(3-((methylamino)methyl)imidazo[1,2-a]pyridin-6-yl)phenoxy)ethyl)-1,5-dimethyl-1H-pyrazol-3-yl)-2,2-dimethylpropan-1-ol], the “Caco-2 A-B” value in the data set on Caco-2 cells was 0.95 ×10⁻⁶ cm/s. In addition, the IC50 is 3 nM in data set [1]; 10 nM in data set [2]; 3 nM in data set [3]; 0.6 nM in data set [4]; 0.07 nM in data set [5]; 3 nM in data set [6].

For the compound `Cc1c(CCOc2cc(Cl)ccc2-c2ccc3ncc(CCN)n3c2)c(C(=O)N(C)C)nn1C` [Comparator Compound 1, 4-(2-{2-[3-(2-aminoethyl)imidazo[1,2-a]pyridin-6-yl]-5-chlorophenoxy}ethyl)-N,N,1,5-tetramethyl-1H-pyrazole-3-carboxamide, reference compound], the “Caco-2 A-B” value in the data set on Caco-2 cells is 0.0 ×10⁻⁶ cm/s. Moreover, the IC50 is 1540 nM in data set [1]; > 1000 nM in data set [7]; 130 nM in data set [2]; 44 nM in data set [3]; 5 nM in data set [4]; 9 nM in data set [5]. It took 890 nM to reach half-maximal inhibition in data set [6] (IC50).

The term IC50 denotes the concentration that inhibits the measured activity by half. Read a high IC50 as weaker potency in that assay.
